{"source": "patent US8361999B2", "about": "“Methods of treating cholesterol gallstone disease with ezetimibe” (Pontificia Universidad Catolica de Chile, priority 2005, dated 2013)", "key": {"C57BL/6J mice [1]": {"test_system": "C57BL/6J mice", "assay": "Plasma cholesterol and plasma lipoprotein profile, protocol #1", "type": "in vivo, mouse", "method": "(§1) Surgery and sample harvest. The groups were maintained for 14 days (protocol #1) or 30 days (protocol #2) in the different experimental conditions. During the last three days of the protocols, 24 h depositions were collected from the different groups (pool) to determine the fecal excretion of neutral sterols (cholesterol) and acidic sterols (bile salts). At the end of the time established in the protocols, the mice were anesthetized (between 08:00-10:00 AM) with an intraperitoneal pentobarbital injection in doses of 4.5 mg per 100 gr body weight (Amigo et al., 2000) and subjected to surgery. Standardized surgery consists in an extended […] and visualization of abdominal organs, including liver, biliary tree and gallbladder. First, we performed a resection of the gallbladder (cholecystectomy), with the cystic duct previously ligated (Amigo et al., 2002; Amigo et al., 2000; Amigo et al., 2003b). The gallbladder is removed and visually inspected to determine the presence of gallstones. Then, the gallbladder bile is extracted to analyze the presence of cholesterol crystals in the fresh samples under the microscope with polarized light (20×). Aliquots are stored at −20° C. for subsequent chemical analysis. Afterwards, the common biliary duct is cannulated (biliary fistula) with a P-10 polyethylene cannula to collect bile during 15 minutes, determine bile flow by gravimetry (1 g bile=1 ml; bile flow is expressed as μl/min/g of mouse liver) and for posterior chemical analysis of biliary lipids and glutathione, as specified later. […] Then, the liver is removed, weighted, frozen in liquid nitrogen and stored at −80 for subsequent analyses. The plasma is separated by centrifugation at 1,500 rpm and stored at −80° C. for later analysis. The animal protocols were approved by our institution Ethics Committee and the animals were treated according to international care rules for experimental animals.\n(§2) Intestinal absorption of cholesterol and bile salts. The capacity of Ezetimibe to inhibit cholesterol and bile salt absorption was indirectly determined by quantification of neutral sterols (cholesterol) and acidic sterols (bile acids) present in the feces collected on day 12, 13 and 14 of the experiment (three days). In order to determine cholesterol (neutral sterols) fecal excretion, the feces were dried at 50° C. for three days and then weighted to obtain an average of fecal excretion per day (in grams). The feces were homogenized in a mortar, and 5 ml 2N NaOH:methanol, 1:1 are added per 100 mg (dry weight) aliquots of the homogenate. The sample is vortex and incubated at 60° C. for 1 h for saponification, then it is cooled and 5 ml petroleum ether is added followed by vigorous agitation to obtain the separation of the hydrophobic and hydrophilic phases. The samples are then centrifuged at 1,000 rpm for 10 minutes and the hydrophobic phase (upper layer) is recovered. Second and third extractions are performed by adding 5 ml petroleum ether to the hydrophilic phase. The hydrophobic phases are dried under gaseous nitrogen and the lipids are resuspended in 1 ml chloroform. 50 μl aliquots, in duplicate, are dried at room temperature, and total cholesterol is quantified according to the enzymatic method described above. The values obtained are expressed as μmoles cholesterol/day/100 g of mouse (Miettinen et al., 1965). […]"}, "C57BL/6J mice [2]": {"test_system": "C57BL/6J mice", "assay": "Determination of hepatic cholesterol, protocol #1", "type": "in vivo, mouse", "conditions": "14 days", "method": "as §1\nDetermination of hepatic cholesterol. The hepatic cholesterol content is quantified from hepatic tissue (50 mg) that is homogenized in chloroform/methanol 2:1. The homogenate is incubated at 50° C. for 30 minutes, and then distilled H2O is added to separate the phases. The mix is vortexed and incubated at 4° C. for two hours and centrifuged at 1,000 rpm for 20 minutes. The lower phase (hydrophobic-chloroform) is removed and dried under gaseous nitrogen. The lipids on the tube wall are resuspended in chloroform plus Triton X-100 0.5% v/v. Four aliquots are taken and dried at room temperature. Total cholesterol content was measured to half of the tubes by the enzymatic method described earlier for biliary cholesterol. To the other half, free cholesterol was measured in buffer (Tris-HCl pH 7.6, Triton X-100, 0.2% phenol, aminoantipyrine) plus the enzymes cholesterol oxidase and peroxidase. The samples are incubated and quantified in the same way described for total cholesterol. The cholesterol ester content for each sample is calculated as the difference between total cholesterol and free cholesterol. The values obtained in each case are given as mg cholesterol/g liver (Folch et al., 1957)."}, "[3]": {"test_system": "cholesterol and bile salt absorption", "assay": "Intestinal absorption of cholesterol and bile salts by fecal excretion of neutral and acidic sterols", "type": "in vivo, mouse", "conditions": "for Fecal excretion of bile acids / Fecal excretion of neutral sterols: pooled feces; for Fecal excretion of bile acids: days 12-14; for Fecal excretion of neutral sterols: last three days of 14", "method": "as §1\nas §2, with “1965). In order to determine fecal excretion of bile acids the mice feces were collected during three days (days 12-14), dried at 50° C. for one week and weighted. The feces are then homogenized in a mortar; (^14C) cholic acid, 200,000 cpm is added to 1 g of the homogenate to determine the degree of recovery. The samples are then mixed with NaBr, NaOH and HCl, dissolved in ethanol and incubated at 120° C. for 8 h in a reflux system. The hydrolyzed fecal samples are resuspended in NaOH and dried under gaseous N2. The pellet obtained is resuspended in ethanol and run through Sep-Pak columns to eliminate all bile salts contaminants.” for “1965).”"}, "C57BL/6J mice [4]": {"test_system": "C57BL/6J mice", "assay": "Glutathione biliary secretion", "type": "in vivo, mouse", "conditions": "lithogenic diet (FIG. 4)", "method": "Surgery and sample harvest. The groups were maintained for 14 days (protocol #1) or 30 days (protocol #2) in the different experimental conditions. During the last three days of the protocols, 24 h depositions were collected from the different groups (pool) to determine the fecal excretion of neutral sterols (cholesterol) and acidic sterols (bile salts). At the end of the time established in the protocols, the mice were anesthetized (between 08:00-10:00 AM) with an intraperitoneal pentobarbital injection in doses of 4.5 mg per 100 gr body weight (Amigo et al., 2000) and subjected to surgery. Standardized surgery consists in an extended […] and visualization of abdominal organs, including liver, biliary tree and gallbladder. […] Afterwards, the common biliary duct is cannulated (biliary fistula) with a P-10 polyethylene cannula to collect bile during 15 minutes, determine bile flow by gravimetry (1 g bile=1 ml; bile flow is expressed as μl/min/g of mouse liver) and for posterior chemical analysis of biliary lipids and glutathione, as specified later. […]\nBiliary gluthation. Biliary gluthation was quantified from the bile obtained by cannulation of the biliary duct for a 5 minute period with tubes containing 5 μl sulfosalicylic acid. […] The reaction mix was incubated at 37° C., measured at 412 nm, and an enzymatic kinetic curve was obtained using different […] concentrations as standard. […]"}, "SR-BI": {"test_system": "SR-BI", "assay": "Hepatic expression of SR-BI", "type": "in vivo, mouse", "conditions": "14 days"}, "[5]": {"test_system": "intestinal cholesterol absorption", "conditions": "mammalian models (murine models); cited from earlier work"}}, "note": "Marks after values point to notes of the source that are not given here."}
{"smiles": "O=C1[C@H](CC[C@H](O)c2ccc(F)cc2)[C@@H](c2ccc(O)cc2)N1c1ccc(F)cc1", "note": "[Ezetimibe, (−)-1-(4-fluorophenyl)-(3R)-[3-(4-fluorophenyl)-(.S)-hydroxypropyl]-(4S)-(4-hydroxyphenyl)-2-azetidinone]", "values": [{"measurement": "Plasma Cholesterol", "setting": "C57BL/6J mice [1]; Chow + Ezetimibe, 14 days", "value": "86.21 ± 13.8", "unit": "mg/dL"}, {"measurement": "Plasma Cholesterol", "setting": "C57BL/6J mice [1]; Lithogenic + Ezetimibe, 14 days", "value": "161.38 ± 38.96", "unit": "mg/dL"}, {"measurement": "plasma lipoprotein profile, ezetimibe groups vs controls", "setting": "C57BL/6J mice [1]; chow and lithogenic diets, 14 days (FIG. 2)", "value": "did not show significant differences"}, {"measurement": "concentration of total cholesterol in plasma, with vs without ezetimibe", "setting": "C57BL/6J mice [1]; control diet, 14 days", "value": "similar"}, {"measurement": "increase of plasma cholesterol concentration, with vs without ezetimibe", "setting": "C57BL/6J mice [1]; lithogenic diet, 14 days", "value": "similarly"}, {"measurement": "Hepatic Cholesterol Esterified", "setting": "C57BL/6J mice [2]; Chow + Ezetimibe", "value": "0.34 ± 0.16", "unit": "mg/mL"}, {"measurement": "Hepatic Cholesterol Free", "setting": "C57BL/6J mice [2]; Chow + Ezetimibe", "value": "1.91 ± 0.65", "unit": "mg/mL"}, {"measurement": "Hepatic Cholesterol Total", "setting": "C57BL/6J mice [2]; Chow + Ezetimibe", "value": "2.26 ± 0.59", "unit": "mg/mL"}, {"measurement": "Hepatic Cholesterol Esterified", "setting": "C57BL/6J mice [2]; Lithogenic + Ezetimibe", "value": "1.31 ± 0.99^& mg/ml"}, {"measurement": "Hepatic Cholesterol Free", "setting": "C57BL/6J mice [2]; Lithogenic + Ezetimibe", "value": "2.59 ± 0.24", "unit": "mg/mL"}, {"measurement": "Hepatic Cholesterol Total", "setting": "C57BL/6J mice [2]; Lithogenic + Ezetimibe", "value": "3.91 ± 1.05*^& mg/ml"}, {"measurement": "hepatic cholesterol content smaller with Ezetimibe than with water", "setting": "C57BL/6J mice [2]; control diet", "value": 20, "unit": "%"}, {"measurement": "increment of total hepatic cholesterol content", "setting": "C57BL/6J mice [2]; lithogenic diet plus Ezetimibe, 360% on lithogenic diet without Ezetimibe", "value": 38, "unit": "%"}, {"measurement": "Fecal excretion of bile acids", "setting": "[3]; Chow + Ezetimibe", "value": 55.42, "unit": "μmol/day/100 g mouse"}, {"measurement": "Fecal excretion of neutral sterols", "setting": "[3]; Chow + Ezetimibe", "value": 19.98, "unit": "μmol/day/100 g mouse"}, {"measurement": "Fecal excretion of bile acids", "setting": "[3]; Lithogenic + Ezetimibe", "value": 909.20, "unit": "μmol/day/100 g mouse"}, {"measurement": "Fecal excretion of neutral sterols", "setting": "[3]; Lithogenic + Ezetimibe", "value": 165.79, "unit": "μmol/day/100 g mouse"}, {"measurement": "effect on fecal excretion of bile salts", "setting": "[3]; both on control and lithogenic diets", "value": "does not significantly affect"}, {"measurement": "increment of fecal excretion of neutral sterols vs control diet without Ezetimibe", "setting": "[3]; control diet", "value": 37, "unit": "%"}, {"measurement": "fecal excretion of neutral sterols (cholesterol) higher than in mice not treated with Ezetimibe", "setting": "[3]; lithogenic diet", "value": 55, "unit": "%"}, {"measurement": "increase in glutathione secretion vs lithogenic diet only (significant)", "setting": "C57BL/6J mice [4]", "value": 200, "unit": "%"}, {"measurement": "hepatic expression of SR-BI, lithogenic diet plus Ezetimibe vs lithogenic diet", "setting": "SR-BI", "value": "no significant differences"}, {"measurement": "dosages that effectively inhibit intestinal cholesterol absorption", "setting": "[5]", "value": "0.1-6 mg/kg body weight per day"}]}
